Data set [1] is classed as in vivo, human (female patients). Conditions: for relief by previous treatment: six DMSO treatments and one heparin treatment. The procedure:
They were administered a 75 mg oral dose of hydroxyzine pamoate per day. After 5 days the burning sensation upon voiding and sharp pelvic pain disappeared. In two months, the extreme tenderness from their chest area to pelvic area also disappeared. After about 10 to 12 weeks frequency was eliminated. […] Upon discontinuing administration of hydroxyzine pamoate symptoms reappeared within 24 hours or less. After one year of treatment, the subject takes 50 mg and 25 mg of hydroxyzine pamoate, respectively, on alternating days, with continued 100% success.
This person three was diagnosed with interstitial cystitis in March 1989. […] Their symptoms included constant burning in the bladder, pain at the connection of the buttocks with the upper legs and painful sexual intercourse. They could not sleep although their need to urinate was only about four times per night. Sitting on "blue ice" packs wrapped in a cloth provided some relief from the buttock pain and the burning.
This is person one who experienced increasing problems over the last 10 years until it became difficult to function as a nurse, parent and spouse. […] They had not received any treatment since February 1990 and was experienceing a flare up of symptoms when they tried hydroxyzine-HCl. […]

In a further data set the test system is bladder mast cells. In words: Inhibition of neurohormonal activation of bladder mast cell secretion. The data set is classed as cell-based. Conditions: for inhibition of neurohormonal activation of bladder mast cell secretion (in words): found by the applicant. From the text: "Inhibitor of neurohormonal activation of mast cell secretion" refers to any substance or group of substances, devoid of any psychotropic effects which prevent the stimulation of mast cell secretion by hormones or molecules produced by nervous tissue. Whether or not a pharmacologically active substance is an inhibitor of neurohormonal activation of mast cell secretion can be determined by using the following procedure: Mast cells purified from peritoneal cavities of rats and stimulated by a neuropeptide, such as somatostatin (Theoharides, T. C. and Douglas, W. W. Endocrinology 102:1637-1640, 1978), or rat brain slices stimulated by substance P in special perfusion chambers (Dimitriadou, V., Buzzi, M. G., Moskowitz, M. A. and Theoharides, T. C. Neuroscience 44:27-39, 1991) or rat bladder mast cells stimulated by carbachol in special perfusion chambers (Theoharides, T. C. and Sant, G. R. Seminars Urology […], 1991) will first be […] with concentration of the agents to be tested ranging from 0.1 μmol/L-to-100 μmol/L of solution for varying amounts of time at 37° C. to determine their ability to inhibit subsequent mast cell secretion as described above.
These compounds can be tested by preincubating mast cells purified from the peritoneal cavity of rats with various concentrations of compound, typically 0.1 μmol/L to 1,000 μmol/L, for various times at 37° C. before stimulating mast ctll secretion with a stimulus such as somatostatin (Theoharides, T. C. and Douglas, W. W. Somatostatin induces histamine secretion from rat peritoneal mast cells. Endocrinology 102:1637-1640, 1978).
(§1) More appropriate to interstitial cystitis, bladder mast cells can be triggered to secrete in situ using slices of rodent bladders in perfusion chambers and measuring secreted chemicals (Theoharides, T. C. and Sant, G. R. Bladder mast cell activation in interstitial cystitis. Seminars Urology 9:74-87, 1991).

Another data set deals with Rat Bladder Mast Cells. In words: ID20 for histamine release, inhibition of mast cell secretion by H-1 receptor antagonists in vitro (Table 5). The format is cell-based. The conditions noted are these: inhibitory dose causing 20% inhibition, read-out: ID20 for Histamine Release from Rat Bladder Mast Cells.
Text: "Inhibitor of neurohormonal activation of mast cell secretion" refers to any substance or group of substances, devoid of any psychotropic effects which prevent the stimulation of mast cell secretion by hormones or molecules produced by nervous tissue.
as §1

For data set [2] the following is noted: cited from earlier work.
For data set [3] the following is noted: cited from earlier work. This is another data set of the same source.
In the next data set the test system is neurons. Nature of the data set: Inhibition of neuropeptide release from neurons stimulated by high K^+. The format is cell-based.
A short description of data set [4]: Anticholinergic and anxiolytic properties. The conditions noted are these: decreasing frequency.
[5] abbreviates: Example 2, patient three, since March 1991.
The mark [6] stands for this setting: Example 2, patient three, 25 mg.
The mark [7] stands for this setting: Example 1, patient two, 75 mg oral per day.

Structures can show the parent of a compound that is named as a salt.

With `OCCOCCN1CCN(C(c2ccccc2)c2ccc(Cl)cc2)CC1` (racemic) [hydroxyzine-HCl], in data set [1] (Example 2, patient three), the “pain on sexual intercourse” value is on record as “no longer associated with severe bladder pain”, the quality of life result is recorded as “definitely improved the quality of their life” and the “tolerance of offending foods” value is recorded as “they can eat some offending foods in small quantities”. In data set [1] (setting [5]), the “burning in the bladder” value was “the burning has subsided significantly” and the buttock pain entry is given as “the buttock pain is reduced”. The “symptoms on attempted withdrawal of the drug” value in data set [1] (Example 3, patient one, 2 or 3 occasions) was “definite increase in interstitial cystitissymptoms”. In addition, in data set [1] (Example 3, patient one, 25 to 50 mg daily), the bladder comfort entry is on record as “almost total bladder comfort”. For the same molecule, the control of symptoms result in data set [1] (Example 3, patient one, daily since May 1990) is “remarkable control of symptoms”.
`CN1CCC(=C2c3ccccc3CCc3cccnc32)CC1` [Azatadine]: the “inhibition of neurohormonal activation of bladder mast cell secretion (in words)” value with bladder mast cells is on record as “inhibit neurohormonal activation of bladder mast cell secretion”. For the same molecule, the IC20 with Rat Bladder Mast Cells turned out to be 1 µM.
Turning to `CN1CCCC(n2nc(Cc3ccc(Cl)cc3)c3ccccc3c2=O)CC1` (stereo not drawn) [Azelastine], in the data set on bladder mast cells, the “inhibition of neurohormonal activation of bladder mast cell secretion (in words)” value is given as “inhibit neurohormonal activation of bladder mast cell secretion”. In addition, the IC20 in the data set on Rat Bladder Mast Cells is 1 µM.
For the molecule `C[S+](C)[O-]` [DMSO, dimethylsulfoxide], the “relief by previous treatment” value in data set [1] (Example 2, patient three) is on record as “very limited relief”. Moreover, the “improvement by previous treatment” value in data set [1] (Example 3, patient one) was “fairly good improvement”. In addition, the “side effects: bladder and urethra” value in data set [2] (intravesical) is “Bladder spasms and irritability may be experienced with DMSO treatment, as well as urethral burning during voiding”. Further, the “side effects: breath odor and taste” value in data set [2] (intravesical, most patients) is “garlic-like breath odor and a similar taste in their mouths”. Moreover, the pulmonary excretion result in data set [3] (intravesical) is reported as “pulmonary excretion of a small percentage of the DMSO as dimethyl sulfide”.
Regarding `OCCOCCN1CCN(C(c2ccccc2)c2ccc(Cl)cc2)CC1` (stereo not drawn) [Hydroxyzine], in the data set on neurons, the “inhibition of neuropeptide release from neurons (in words)” value is recorded as “inhibits neuropeptide release from neurons”. Besides, in data set [1] (9 females, 25 mg twice - three times/day × 8 months, alternate 25 mg every other day past 8 months), the “relief from frequency, dysuria, pain” value is 80-100%. Further, in data set [1] (human, in vivo), the “Problems (side effects)” value is reported as “Mild sedation, weakness × 1 week”. Further, the “inhibition of secretion from stimulated bladder mast cells (in words)” value in the data set with bladder mast cells (Table 3, unique characteristics) is recorded as “inhibits secretion from stimulated bladder mast cells”. In the data set with bladder mast cells, the “inhibition of neurohormonal activation of bladder mast cell secretion (in words)” value is recorded as “inhibit neurohormonal activation of bladder mast cell secretion”. The “anticholinergic properties (in words)” value in data set [4] is listed as “strong anticholinergic properties decreasing frequency”. Further, the IC20 with Rat Bladder Mast Cells was 50 µM.
For `CN1CCC(=C2c3ccccc3CC(=O)c3sccc32)CC1` [Ketotifen], in the data set on bladder mast cells, the “inhibition of neurohormonal activation of bladder mast cell secretion (in words)” value is “inhibit neurohormonal activation of bladder mast cell secretion”.
Consider `CN(C)CCC=C1c2ccccc2CCc2ccccc21` [amitriptyline], for which, in data set [1] (Example 1, patient two, conventional methods and amitriptyline), the “success of previous treatment” value is on record as “limited success”. In addition, in data set [1] (setting [6]), the “effect of previous treatment on sleep” value is recorded as “enabled them to sleep some” and the “foods bringing symptoms on previous treatment” value is “many foods still brought severe symptoms”. Moreover, the side effects entry in data set [2] (human, in vivo) is “troublesome side effects such as hypotension, tachycardia, anxiety, or palpitations”.
For `O=C(O)COCCN1CCN(C(c2ccccc2)c2ccc(Cl)cc2)CC1` (stereo not drawn) [cetirizine], the “inhibition of neurohormonal activation of bladder mast cell secretion (in words)” value in the data set on bladder mast cells is on record as “inhibit neurohormonal activation of bladder mast cell secretion”.
Regarding `OCCOCCN1CCN(C(c2ccccc2)c2ccc(Cl)cc2)CC1` (stereo not drawn) [hydroxyzine pamoate], in data set [1] (Example 1, patient two), the patient-reported state result was “felt 100% normal” and the “time to reappearance of symptoms upon discontinuing administration” value was at most 24 h. In data set [1] (setting [7]), the “time to disappearance of burning sensation upon voiding and sharp pelvic pain” value was 5 days; the “time to disappearance of extreme tenderness from chest area to pelvic area” value was “two”. Besides, the “continued success after one year of treatment” value in data set [1] (Example 1, patient two, 50 mg and 25 mg on alternating days) amounted to 100%.
Turning to `CN(C)CCN(Cc1ccccc1)c1ccccn1` [pyribenzamine], in data set [2] (oral, 50 mg three times daily), the “duration of the response” value is on record as “variable” and the symptomatic improvement result is listed as “some symptomatic improvement”.
Consider heparin, for which, in data set [1] (Example 2, patient three), the “relief by previous treatment” value is recorded as “very limited relief”.
On to sodium pentosan polysulfate, for which the “replacement of the protective surface mucin” value in data set [2] (oral or intravesical administration) is “replace the protective surface mucin”. The duration result in data set [3] (must be taken numerous times per day) was “short duration”. Moreover, in data set [3] (oral), the “amount of drug reaching the site of treatment” value was “only a small amount of the drug will reach the site of treatment” and the metabolism result is “primarily liver-metabolized”.

(Values after patent US5994357A, “Method of treatment for interstitial cystitis” (priority 1994, dated 1999).)
